# Assay results as given in PMC10094048, “Synthesis and Anticancer Evaluation of 4-Anilinoquinolinylchalcone Derivatives” (International Journal of Molecular Sciences, 2023).
# Where a name gives a salt, the structure may show the parent alone.
# Experiments:
# MDA-MB-231 = assay: XTT antiproliferative assay, MDA-MB-231; assay type: cell-based; settings: Homo sapiens, 72 h, mean ± SD
# Procedure: (§1) All the synthesized 4-anilinoquinolinylchalcone derivatives were evaluated in vitro against two cancer cells (Huh-7 and MDA-MB-231) and a non-cancer normal fibroblast lung cell line (MRC-5) using an XTT (sodium 3′-[1-(phenylamino-carbonyl)-3,4-tetrazolium}-bis(4-methoxy-6-nitro)benzene sulfonic acid hydrate) assay. The concentration that inhibited the growth of 50% of cells (IC50) was determined from the linear portion of the curve by calculating the concentration of the tested agent that reduced absorbance in treated cells, compared to control cells, by 50%. The IC50 results of these 4-anilinoquinolinylchalcone derivatives are summarized (Table 1). […] Thus, 4a was selected as a lead compound for further mechanism studies.
# (§2) Cancer cells (Huh-7, MDA-MB-231) and normal lung cells (MRC-5) were purchased from Bioresources Collection and Research Center, Taiwan. Cells were maintained in the same standard medium, grown as a monolayer in DMEM (Gibco, Miami, FL, USA), and supplemented with 10% fetal bovine serum (FBS) and antibiotics, i.e., 100 IU/mL penicillin, 0.1 mg/mL streptomycin and 0.25 μg/mL amphotericin. The culture was maintained at 37 °C with 5% CO2 in a humidified atmosphere. Cells (5 × 10^3 cells/well) were treated with tested compounds for 72 h in the medium containing 10% FBS. Cell viability was quantitated with the use of sodium 3′-[1-(phenylamino-carbonyl)-3,4-tetrazolium}-bis(4-methoxy-6-nitro)benzene sulfonic acid hydrate (XTT) colorimetric assay (Biological Industries, Beit-Haemek, Israel). XTT labeling reagent (1 mg/mL) was mixed with electron-coupling reagent, following the manufacturer’s instructions, and 50 μL of the mixture was added directly to the cells. The plates were further incubated at 37 °C for 4 h. Color was measured spectrophotometrically in a microtiter plate reader at 492 nm and used as a relative measurement of viable cell numbers. After drug treatment, the viable cell number was compared to the solvent and untreated control cell number. This information was used to determine the percent of control growth as (Abtreated/Abcontrol) × 100, where Ab represents the mean absorbance (n = 3). The concentration that killed 50% of cells (IC50) was determined from the linear portion of the curve by calculating the concentration of the agent that reduced the absorbance in treated cells, compared to control cells, by 50%.
# MRC-5 = assay: XTT antiproliferative assay, normal lung cells MRC-5; assay type: cell-based; settings: Homo sapiens, MRC5, 72 h, mean ± SD
# Procedure: as §1, §2
# Huh-7 = assay: XTT antiproliferative assay, Huh-7; assay type: cell-based; settings: Homo sapiens, 72 h, mean ± SD
# Procedure: as §1, §2
Structure (SMILES),melting point [°C],IC50 (MDA-MB-231) [µM],IC50 (Huh-7) [µM],IC50 (MRC-5) [µM]
"COc1ccc(C(=O)/C=C/c2cc(Nc3ccc(OCc4ccccc4)cc3)c3ccccc3n2)cc1 (as salt: salt) [Compound 4a, (E)-3-{4-{[4-(Benzyloxy)phenyl]amino}quinolin-2-yl}-1-(4-methoxyphenyl)prop-2-en-1-one]",200 to 201,–,–,–
"COc1ccc(C(=O)/C=C/c2cc(Nc3ccc(OCc4ccccc4Cl)cc3)c3ccccc3n2)cc1 (as salt: salt) [Compound 4b, (E)-3-{4-{{4-[(2-Chlorobenzyl)oxy]phenyl}amino}quinolin-2-yl}-1-(4-methoxy - phenyl) prop-2-en-1-one]",160 to 161,–,–,–
COc1ccc(C(=O)/C=C/c2cc(Nc3ccc(OCc4ccccc4F)cc3)c3ccccc3n2)cc1 (as salt: salt) [Compound 4c],175 to 176,–,–,–
"COc1ccc(C(=O)/C=C/c2cc(Nc3ccc(OCc4cccc(Cl)c4)cc3)c3ccccc3n2)cc1 (as salt: salt) [Compound 4d, (E)-3-{4-{{4-[(3-Chlorobenzyl)oxy]phenyl}amino}quinolin-2-yl}-1-(4-methoxy-phenyl) prop-2-en-1-one]",132 to 133,–,–,–
"COc1ccc(C(=O)/C=C/c2cc(Nc3ccc(OCc4cccc(F)c4)cc3)c3ccccc3n2)cc1 (as salt: salt) [Compound 4e, (E)-3-{4-{{4-[(3-Fluorobenzyl)oxy]phenyl}amino}quinolin-2-yl}-1-(4-methoxy-phenyl) prop-2-en-1-one]",171 to 172,–,–,–
"COc1ccc(C(=O)/C=C/c2cc(Nc3ccc(OCc4ccc(Cl)cc4)cc3)c3ccccc3n2)cc1 (as salt: salt) [Compound 4g, (E )-3-{4-{{4-[(4-Chlorobenzyl)oxy]phenyl}amino}quinolin-2-yl}-1-(4-methoxy - phenyl)prop-2-en-1-one]",142 to 143,–,–,–
"COc1ccc(C(=O)/C=C/c2cc(Nc3ccc(OCc4ccc(F)cc4)cc3)c3ccccc3n2)cc1 (as salt: salt) [Compound 4h, (E)-3-{4-{ {4-[ (4-Fluorobenzyl)oxy]phenyl}amino}quinolin-2-yl}-1-(4-methoxy - phenyl)prop-2-en-1-one]",176 to 177,–,–,–
"COc1ccc(C(=O)/C=C/c2cc(Nc3ccc(OCc4ccccc4Cl)cc3)c3ccccc3n2)cc1 [Compound 4b, (E)-3-{4-{{4-[(2-Chlorobenzyl)oxy]phenyl}amino}quinolin-2-yl}-1-(4-methoxy - phenyl) prop-2-en-1-one]",–,1.59 ± 0.15,1.83 ± 0.22,> 20
COc1ccc(C(=O)/C=C/c2cc(Nc3ccc(OCc4ccccc4F)cc3)c3ccccc3n2)cc1 [Compound 4c],–,1.04 ± 0.04,0.81 ± 0.06,> 20
"COc1ccc(C(=O)/C=C/c2cc(Nc3ccc(OCc4cccc(Cl)c4)cc3)c3ccccc3n2)cc1 [Compound 4d, (E)-3-{4-{{4-[(3-Chlorobenzyl)oxy]phenyl}amino}quinolin-2-yl}-1-(4-methoxy-phenyl) prop-2-en-1-one]",–,0.18 ± 0.06,0.69 ± 0.04,> 20
"COc1ccc(C(=O)/C=C/c2cc(Nc3ccc(OCc4cccc(F)c4)cc3)c3ccccc3n2)cc1 [Compound 4e, (E)-3-{4-{{4-[(3-Fluorobenzyl)oxy]phenyl}amino}quinolin-2-yl}-1-(4-methoxy-phenyl) prop-2-en-1-one]",–,0.54 ± 0.11,1.45 ± 0.28,> 20
"COc1ccc(C(=O)/C=C/c2cc(Nc3ccc(OCc4cccc(OC)c4)cc3)c3ccccc3n2)cc1 [Compound 4f, (E)-3-{4-{{4-[(3-Methoxybenzyl)oxy]phenyl}amino}quinolin-2-yl}-1-(4-methoxy - phenyl)prop-2-en-1-one]",–,1.94 ± 0.52,1.41 ± 0.04,> 20
"COc1ccc(C(=O)/C=C/c2cc(Nc3ccc(OCc4ccc(Cl)cc4)cc3)c3ccccc3n2)cc1 [Compound 4g, (E )-3-{4-{{4-[(4-Chlorobenzyl)oxy]phenyl}amino}quinolin-2-yl}-1-(4-methoxy - phenyl)prop-2-en-1-one]",–,1.71 ± 0.35,1.31 ± 0.56,> 20
"COc1ccc(C(=O)/C=C/c2cc(Nc3ccc(OCc4ccc(F)cc4)cc3)c3ccccc3n2)cc1 [Compound 4h, (E)-3-{4-{ {4-[ (4-Fluorobenzyl)oxy]phenyl}amino}quinolin-2-yl}-1-(4-methoxy - phenyl)prop-2-en-1-one]",–,1.69 ± 0.21,1.37 ± 0.28,> 20

# Now from value to molecule, other results behind:
melting point [°C],IC50 (MDA-MB-231) [µM],IC50 (Huh-7) [µM],Structure (SMILES),IC50 (MRC-5) [µM]
162 to 163,–,–,"O=C(/C=C/c1cc(Nc2ccc(OCc3ccccc3)cc2)c2ccccc2n1)c1ccc(F)cc1 (as salt: salt) [Compound 5a, (E)-3-{4-{[4-(Benzyloxy)phenyl]amino}quinolin-2-yl}-1-(4-fluorophenyl)prop-2-en-1-one]",–
192 to 193,–,–,"O=C(/C=C/c1cc(Nc2ccc(OCc3ccccc3Cl)cc2)c2ccccc2n1)c1ccc(F)cc1 (as salt: salt) [Compound 5b, (E)-3-{4-{{4-[(2-Chlorobenzyl)oxy]phenyl}amino}quinolin-2-yl}-1-(4-fluorophenyl) prop-2-en-1-one]",–
207 to 208,–,–,"O=C(/C=C/c1cc(Nc2ccc(OCc3ccccc3F)cc2)c2ccccc2n1)c1ccc(F)cc1 (as salt: salt) [Compound 5c, (E)-3-{4-{{4-[(2-Fluorobenzyl)oxy]phenyl}amino}quinolin-2-yl}-1-(4-fluorophenyl) prop-2-en-1-one]",–
172 to 173,–,–,"O=C(/C=C/c1cc(Nc2ccc(OCc3cccc(Cl)c3)cc2)c2ccccc2n1)c1ccc(F)cc1 (as salt: salt) [Compound 5d, (E)-3-{4-{{4-[(3-Chlorobenzyl)oxy]phenyl}amino}quinolin-2-yl}-1-(4-fluorophenyl) prop-2-en-1-one]",–
213 to 214,–,–,"O=C(/C=C/c1cc(Nc2ccc(OCc3cccc(F)c3)cc2)c2ccccc2n1)c1ccc(F)cc1 (as salt: salt) [Compound 5e, (E)-3-{4-{{4-[(3-Fluorobenzyl)oxy]phenyl}amino}quinolin-2-yl}-1-(4-fluorophenyl)prop-2-en-1-one]",–
–,1.65 ± 0.77,1.24 ± 0.09,"O=C(/C=C/c1cc(Nc2ccc(OCc3ccccc3)cc2)c2ccccc2n1)c1ccc(F)cc1 [Compound 5a, (E)-3-{4-{[4-(Benzyloxy)phenyl]amino}quinolin-2-yl}-1-(4-fluorophenyl)prop-2-en-1-one]",> 20
–,1.53 ± 0.21,1.24 ± 0.3,"O=C(/C=C/c1cc(Nc2ccc(OCc3ccccc3Cl)cc2)c2ccccc2n1)c1ccc(F)cc1 [Compound 5b, (E)-3-{4-{{4-[(2-Chlorobenzyl)oxy]phenyl}amino}quinolin-2-yl}-1-(4-fluorophenyl) prop-2-en-1-one]",> 20
–,1.42 ± 0.7,1.25 ± 0.07,"O=C(/C=C/c1cc(Nc2ccc(OCc3ccccc3F)cc2)c2ccccc2n1)c1ccc(F)cc1 [Compound 5c, (E)-3-{4-{{4-[(2-Fluorobenzyl)oxy]phenyl}amino}quinolin-2-yl}-1-(4-fluorophenyl) prop-2-en-1-one]",> 20
–,1.76 ± 0.13,1.28 ± 0.21,"O=C(/C=C/c1cc(Nc2ccc(OCc3cccc(Cl)c3)cc2)c2ccccc2n1)c1ccc(F)cc1 [Compound 5d, (E)-3-{4-{{4-[(3-Chlorobenzyl)oxy]phenyl}amino}quinolin-2-yl}-1-(4-fluorophenyl) prop-2-en-1-one]",> 20
–,1.82 ± 0.28,1.27 ± 0.06,"O=C(/C=C/c1cc(Nc2ccc(OCc3cccc(F)c3)cc2)c2ccccc2n1)c1ccc(F)cc1 [Compound 5e, (E)-3-{4-{{4-[(3-Fluorobenzyl)oxy]phenyl}amino}quinolin-2-yl}-1-(4-fluorophenyl)prop-2-en-1-one]",> 20
–,2.03 ± 0.14,1.34 ± 0.35,"COc1cccc(COc2ccc(Nc3cc(/C=C/C(=O)c4ccc(F)cc4)nc4ccccc34)cc2)c1 [Compound 5f, (E)-1-(4-Fluorophenyl)-3-{4-{{4-[(3-methoxybenzyl)oxy]phenyl}amino}quinolin-2-yl}prop-2-en-1-one]",> 20
–,1.5 ± 0.77,1.3 ± 0.14,"O=C(/C=C/c1cc(Nc2ccc(OCc3ccc(Cl)cc3)cc2)c2ccccc2n1)c1ccc(F)cc1 [Compound 5g, (E)-3-{4-{{4-[(4-Chlorobenzyl)oxy]phenyl}amino}quinolin-2-yl}-1-(4-fluorophenyl)prop-2-en-1-one]",> 20
–,1.68 ± 0.21,1.29 ± 0.28,"O=C(/C=C/c1cc(Nc2ccc(OCc3ccc(F)cc3)cc2)c2ccccc2n1)c1ccc(F)cc1 [Compound 5h, (E)-3-{4-{{4-[(4-Fluorobenzyl)oxy]phenyl}amino}quinolin-2-yl}-1-(4-fluorophenyl)prop-2-en-1-one]",> 20
